Reference: US7718846B2, “Animal models of long QT syndrome and uses thereof” (priority 2005, dated 2010)

What was measured:
WT rabbits = settings: Carlsson rabbit model; cited from earlier work
LQT2 = settings: cited from earlier work
[1] = system: rabbit left ventricular wedge preparation; settings: 100 μM
Method: Shown are floating microelectrode recordings from an M cell in the subendocardial region of the wedge preparation and an ECG recorded across the bath.
Rabbits weighing 2.5 3.5 kg may be anticoagulated with heparin and anesthetized with pentobarbital (30-35 mg/kg, i.v.). Transmural wedges with dimensions of approximately 2×1.5×0.9 cm to 3×2×1.5 cm may be dissected from the left ventricle. The tissue may be cannulated via a small (diameter ˜100 μm) native branch of the left descending coronary artery and perfused with cardioplegic solution. Unperfused tissue may be carefully removed using a razor blade. […] A transmural ECG may be recorded using electrodes consisting of AgCl half cells attached to Tyrode's-filled tapered polyethylene electrodes which will be placed in the Tyrode's solution bathing the preparation, 1.0 to 1.5 cm from the epicardial and endocardial surfaces of the preparation, along the same vector as the transmembrane recordings. […] Transmembrane action potentials may be simultaneously recorded from epicardial, M, and endocardial sites using three to four separate intracellular floating microelectrodes (DC resistance: 10 to 20 MΩ) filled with 2.7 M KCl and connected to a high-input impedance amplifier. […]

IKs = settings: experimental models in dogs; cited from earlier work
IKr = settings: E4031 0.5 μM; cited from earlier work
α1-adrenoreceptor = settings: infusion, patient with LQTS; cited from earlier work
α1-adrenoreceptors = settings: cited from earlier work

CC(C)NCC(O)COc1cccc2ccccc12 (centres unmarked) [propranolol]
suppression of arrhythmias by pretreatment (WT rabbits): suppressing the arrhythmias

CC(C)NCC(O)c1ccc(O)c(O)c1 (centres unmarked) [isoproterenol]
duration of transient increase in TDR (LQT2): less than 2 minutes

CC(C)NC[C@@H](O)c1ccc(NS(C)(=O)=O)cc1 [d-sotalol]
Action potential duration at 90% repolarization (APD90) [1]: 427 ms | QT interval [1]: 467 ms

CCS(=O)(=O)N(C)[C@H]1c2cc(C#N)ccc2OC(C)(C)[C@@H]1O (racemic) [chromanol 293B]
TdP, spontaneous or in response to program stimulation (IKs): never produced TdP

COc1cc2nc(N3CCN(C(=O)c4ccco4)CC3)nc(N)c2cc1OC [prazosin]
suppression of arrhythmias by pretreatment (WT rabbits): as effective as pretreatment with propranolol in suppressing the arrhythmias

Cc1cccc(CCN2CCC(C(=O)c3ccc(NS(C)(=O)=O)cc3)CC2)n1 [E4031, Benzenesulfonamide E-4031]
APD (IKr): > 1 s | apex-to-base dispersion of repolarization (IKr): marked enhancement of the apex-to-base dispersion of repolarization with reversal of repolarization

COc1ccc(OC)c(C(O)C(C)N)c1 (centres unmarked) [methoxamine]
QTc (α1-adrenoreceptor): prolong the QTc | APD90 in tissues from the M region (α1-adrenoreceptors; canine wedge preparations): abbreviation of APD90 | APD90 in Purkinje fibers (α1-adrenoreceptors; canine): dose- and rate-dependent prolongation of APD90
